Measurements taken from US11076595B2, “1-(n,n-disubstituted carbamoyl) 4-(substituted sulfonyl)triazolin-5-one derivative, 4-(n,n-disubstituted carbamoyl) 1-(substituted sulfonyl)triazolin-5-one derivative, and herbicide containing said derivative as active ingredient” (HOKKO CHEMICAL INDUSTRY CO., LTD., priority 2017, dated 2021).

What was measured:
Format in all cases: in vivo
Echinochloa crus-galli [1] = assay: Test Example 11: herbicidal effect test by soil treatment in paddy field; conditions: 120 g/10a active ingredient, 14 days after treatment
In short: (§1)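 Puddled paddy soil with N:P:K 17:17:17 fertilizer in Wagner pots; 30 seeds per species sown at 0–1 cm, flooded to about 3 cm, kept in a glass greenhouse. Water-diluted emulsifiable concentrate dripped in immediately after sowing at 120 g a.i. per 10 are. Suppression from dry weight versus untreated at 14 days.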

Lindernia pyxidaria [2] = assay: as above; conditions: 120 g/10a active ingredient, 14 days after treatment
In short: as §1

Monochoria vaginalis [3] = assay: as above; conditions: 120 g/10a active ingredient, 14 days after treatment
In short: as §1

Scirpus juncoides [4] = assay: as above; conditions: 120 g/10a active ingredient, 14 days after treatment
In short: as §1

Echinochloa crus-galli [5] = assay: Test Example 12: herbicidal effect test by treatment during growing period in paddy field; conditions: 120 g/10a; treatment seven days after sowing in flooded paddy pot; assessed 14 days after treatment
In short: (§2)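 Puddled paddy soil in Wagner pots, 30 seeds per species sown 0-1 cm deep, flooded to about 3 cm in a greenhouse. Seven days after sowing, water-diluted emulsifiable concentrate was dripped in at 120 g active ingredient per 10 are. Suppression (%) from dry weight versus untreated at 14 days, two replicates.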

Lindernia pyxidaria [6] = assay: as above; conditions: 120 g/10a; treatment seven days after sowing in flooded paddy pot; assessed 14 days after treatment
In short: as §2

Monochoria vaginalis [7] = assay: as above; conditions: 120 g/10a; treatment seven days after sowing in flooded paddy pot; assessed 14 days after treatment
In short: as §2

Scirpus juncoides [8] = assay: as above; conditions: 120 g/10a; treatment seven days after sowing in flooded paddy pot; assessed 14 days after treatment
In short: as §2

Amaranthus viridis [9] = assay: Test Example 13: herbicidal effect test by soil treatment in upland field; conditions: 120 g/10a, 14 days after treatment
In short: (§3)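 Field alluvial soil in 36 cm^2 pots had 20 seeds of each weed mixed into its top 1 cm. One day after sowing, a water-diluted emulsifiable concentrate was sprayed onto the soil at 100 liter per 10 are (120 g active ingredient per 10 are), with two replicates. Weed suppression (%) was assessed after 14 days.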

Chenopodium album [10] = assay: as above; conditions: 120 g/10a, 14 days after treatment
In short: as §3

Echinochloa crus-galli [11] = assay: as above; conditions: 120 g/10a, 14 days after treatment
In short: as §3

crabgrass [12] = assay: as above; conditions: 120 g/10a, 14 days after treatment
In short: as §3

Chenopodium album [13] = assay: Test Example 14: herbicidal effect test by foliage treatment in upland field; conditions: 7 days after sowing, 120 g/10a, 14 days after treatment
In short: (§4)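 Emulsifiable concentrate, water-diluted, is applied post-emergence to 7-day-old sowings in field soil at 120 g active ingredient per 10 are. The weed suppression rate derives from average dry weights versus untreated controls, measured 14 days later.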

crabgrass [14] = assay: as above; conditions: 7 days after sowing, 120 g/10a, 14 days after treatment
In short: as §4

Amaranthus viridis [15] = assay: as above; conditions: 7 days after sowing, 120 g/10a, 14 days after treatment
In short: as §4

Echinochloa crus-galli [16] = assay: as above; conditions: 7 days after sowing, 120 g/10a, 14 days after treatment
In short: as §4

SMILES	Weed suppression rate (%) Echinochloa crus-galli (Echinochloa crus-galli [1]) [%]	Weed suppression rate (%) Lindemia pyxidaria (Lindernia pyxidaria [2]) [%]	Weed suppression rate (%) Monochoria vaginalis (Monochoria vaginalis [3]) [%]	Weed suppression rate (%) Scirpus juncoides (Scirpus juncoides [4]) [%]	Weed suppression rate (%) Echinochloa crus-galli (Echinochloa crus-galli [5]) [%]	Weed suppression rate (%) Lindemia pyxidaria (Lindernia pyxidaria [6]) [%]	Weed suppression rate (%) Monochoria vaginalis (Monochoria vaginalis [7]) [%]	Weed suppression rate (%) Scirpus juncoides (Scirpus juncoides [8]) [%]	herbicidal effect, Amaranthus viridis (Amaranthus viridis [9]) [%]	herbicidal effect, Chenopodium album (Chenopodium album [10]) [%]	herbicidal effect, Echinochloa crus-galli (Echinochloa crus-galli [11]) [%]	herbicidal effect, Crabgrass (crabgrass [12]) [%]	herbicidal effect, Chenopodium album (Chenopodium album [13]) [%]	herbicidal effect, Crabgrass (crabgrass [14]) [%]	herbicidal effect, Amaranthus viridis (Amaranthus viridis [15]) [%]	herbicidal effect, Echinochloa crus-galli (Echinochloa crus-galli [16]) [%]
CC(C)N(C(=O)n1cnn(S(=O)(=O)c2ccccc2Cl)c1=O)c1ccccc1 [Compound 11-501]	100	90	80	90	100	80	90	90	0	0	40	90	0	90	0	70
CC(C)N(C(=O)n1cnn(S(C)(=O)=O)c1=O)c1ccc(F)cc1F [Compound 11-12]	100	100	100	100	100	100	90	90	100	90	100	100	90	90	80	90
CC(C)N(C(=O)n1cnn(S(=O)(=O)C2CC2)c1=O)c1cccc(F)c1F [Compound 11-189]	100	100	90	90	100	80	100	100	100	90	100	100	80	100	60	100
CC(C)N(C(=O)n1cnn(S(=O)(=O)c2cccs2)c1=O)c1ccc(F)cc1F [Compound 11-1022]	100	100	90	100	90	90	90	90	70	100	100	100	40	70	0	90
CC(C)N(C(=O)n1cnn(S(C)(=O)=O)c1=O)c1ccc(Cl)cn1 [Compound 11-38]	100	80	70	70	100	90	80	90	0	40	90	90	0	90	0	90
CC(C)N(C(=O)n1cnn(S(=O)(=O)C2CC2)c1=O)c1ccccc1F [Compound 11-160]	100	90	70	90	100	90	70	90	90	80	80	90	80	90	90	80
CC(C)N(C(=O)n1cnn(S(=O)(=O)c2c(F)c(F)c(F)c(F)c2F)c1=O)c1ccccc1 [Compound 11-800]	90	90	80	90	90	60	90	90	70	70	60	90	100	90	100	90
CC(C)N(C(=O)n1cnn(S(=O)(=O)C(C)C)c1=O)c1ccc(F)cc1F [Compound 11-59]	100	100	100	100	100	80	100	90	90	100	100	100	80	90	90	80
CC(C)N(C(=O)n1cnn(S(=O)(=O)C(C)C)c1=O)c1c(F)c(F)cc(F)c1F [Compound 11-64]	100	100	90	100	100	80	90	100	60	60	100	100	60	100	60	90
CC(C)N(C(=O)n1cnn(S(=O)(=O)c2ccccc2)c1=O)c1ccc(F)cc1F [Compound 11-367]	100	100	90	90	100	90	90	90	40	40	100	100	40	90	40	90
